Data reported in US7144889B2, “Triarylimidazoles” (Hoffman-La Roche Inc., priority 2003, dated 2006).

Biological target: T1, c-met (Homo sapiens, UniProt P08581)
T1 construct: endogenous in cells; host or cells: HT29 (ATCC HTB-38), human colon adenocarcinoma
Assay: C-met Autoactivation Kinase Assay (AKA), ELISA type assay on HT29 cell lysate
Format: biochemical
Details: phosphorylation of c-met from HT29 lysate, 40 μM ATP
From the text: C-met Autoactivation Kinase Assay (AKA)
C-met is a typical tyrosine kinase which is involved in metastasis, proliferation/apoptosis and angiogenesis of tumors. The assay is an ELISA type assay measuring the phosphorylation of c-met using a phospho-tyrosine specific antibody.
Cell lysate of human colon adenocarcinoma HT29 known for its high content of c-met is bound to the wells of a microtiterplate (MTP) via an anti-hHGF receptor antibody (anti-hHGFR). ATP-phosphorylation of c-met is detected in presence or absence of the test compounds by using a phospho-tyrosine mouse IgG and a POD labeled goat anti-mouse IgG detection system. Using the classical POD substrate TMB, an absorption at 450 nm/620 nm is used to calculate enzymatic activity.
Plates: 96-well polystyrene plates (NUNC) streptavidin-coated microtiter plates Cell line/Lysate: HT29 (ATCC HTB-38), human colon adenocarcinoma (confluence: 2.5×10^5 cells/cm^2) are washed with PBS and incubated with Lysis buffer for 10 min on ice. Supernatent is collected and diluted with TBS. Lysate is shockfrozen in liquid nitrogen and stored at −80° C.)
Reagents (all working solutions are kept at 4° C., unless stated otherwise): • anti-hHGFR detection stock solution: 50 μg/ml (R&D Systems, Cat.No. BAF 358) antibody final conc.: 1 μg/ml • p-Tyr (PY99) mouse stock solution: 200 μg/ml (Santa Cruz Biotechnology, monoclonal IgG2b Cat.No. SC-7020) final conc.: 0.2 μg/ml • goat-anti-mouse IgG: 2 ml (BIO RAD, Cat.No. 170–6516) • (H+L)-HRP Conjugate; final conc.: 1:2000 • Blocking Reagent: Roche Diagnostics GmbH, Cat.No.1 112589 for ELISA diluted 1:10 in TBS • ATP: Adenosine-5′-triphosphate, stock solution 10 mM, stock solution 10 mM (Roche Diagnostics GmbH, Cat.No. 127531) final conc.: 40 μM • TBS: Tris-buffered saline, 50 mM TRIS pH 7.5 (Roche Diagnostics GmbH, Cat.No. 708976), 150 mM NaCl (SIGMA, Cat.No. S-3014) • Wash buffer TBS-T: Tris-buffered saline, 50 mM TRIS pH 7.5 150 mM NaCl, containing 0.5% Tween20 • Kinase buffer: Tris-buffered saline, 50 mM TRIS pH 7.5, 100 mM NaCl, 60 mM MgCl2 (SIGMA Chemical Company, Cat.No. M-1028) • Lysis buffer: 50 mM TRIS pH 7.5 containing 1% Nonidet P40 (Roche Diagnostics GmbH, Cat.No.1754599) 0.5 % Deoxycholic acid (SIGMA Chemical Company, Cat.No. D-6750) final conc.: 1 mM 1 mM PMSF stock solution 70 mM (Roche Diagnostics GmbH, Cat.No.837091 40 μl/ml Complete (Roche Diagnostics GmbH, Cat.No. 1836145) Final conc.: 40 μ/ml • TMB: Tetramethylbenzidine (Intergen Company, Cat.No. 91000) • Samples: 10 mM in DMSO (stored at −20° C.), thawed at room temperature Procedure: […]

T1 sequence (P08581 25-1390): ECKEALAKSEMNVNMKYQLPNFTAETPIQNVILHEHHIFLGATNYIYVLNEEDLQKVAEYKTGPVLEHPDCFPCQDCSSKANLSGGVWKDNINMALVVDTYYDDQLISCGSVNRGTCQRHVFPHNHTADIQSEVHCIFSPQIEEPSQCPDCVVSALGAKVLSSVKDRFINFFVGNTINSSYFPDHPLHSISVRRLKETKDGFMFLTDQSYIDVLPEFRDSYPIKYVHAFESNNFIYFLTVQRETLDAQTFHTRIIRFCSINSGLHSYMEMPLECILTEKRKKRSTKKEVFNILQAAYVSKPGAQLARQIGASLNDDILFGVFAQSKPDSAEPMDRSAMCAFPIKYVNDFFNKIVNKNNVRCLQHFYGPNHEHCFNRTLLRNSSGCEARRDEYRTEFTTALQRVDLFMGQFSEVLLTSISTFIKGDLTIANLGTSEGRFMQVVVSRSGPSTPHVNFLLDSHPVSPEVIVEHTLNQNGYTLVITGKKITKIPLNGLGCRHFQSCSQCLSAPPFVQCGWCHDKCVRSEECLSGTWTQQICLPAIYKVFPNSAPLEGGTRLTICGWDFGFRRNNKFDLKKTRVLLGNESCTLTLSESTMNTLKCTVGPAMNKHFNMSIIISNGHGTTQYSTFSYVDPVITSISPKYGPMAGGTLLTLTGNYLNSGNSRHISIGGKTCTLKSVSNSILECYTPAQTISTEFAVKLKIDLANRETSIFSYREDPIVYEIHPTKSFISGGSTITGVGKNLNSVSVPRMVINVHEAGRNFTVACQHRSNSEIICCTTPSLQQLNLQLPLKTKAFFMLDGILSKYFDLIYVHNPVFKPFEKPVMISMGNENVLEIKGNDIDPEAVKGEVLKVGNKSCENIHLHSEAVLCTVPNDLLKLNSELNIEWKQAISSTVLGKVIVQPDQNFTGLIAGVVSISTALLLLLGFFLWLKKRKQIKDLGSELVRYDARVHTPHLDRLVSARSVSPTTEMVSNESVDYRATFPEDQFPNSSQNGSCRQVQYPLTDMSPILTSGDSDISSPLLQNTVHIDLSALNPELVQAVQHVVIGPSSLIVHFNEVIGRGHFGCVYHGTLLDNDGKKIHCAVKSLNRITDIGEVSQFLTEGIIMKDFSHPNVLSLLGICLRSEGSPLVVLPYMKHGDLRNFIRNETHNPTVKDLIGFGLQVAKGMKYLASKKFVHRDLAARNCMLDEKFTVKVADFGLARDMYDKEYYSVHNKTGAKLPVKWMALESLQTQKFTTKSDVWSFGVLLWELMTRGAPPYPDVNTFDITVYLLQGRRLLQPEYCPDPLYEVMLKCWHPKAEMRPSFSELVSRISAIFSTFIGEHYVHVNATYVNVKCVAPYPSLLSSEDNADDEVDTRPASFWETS

IC50 [nM]	Compound
22	OCCCNc1nccc(-c2[nH]c(-c3c(Cl)cc(OCCO)cc3Cl)nc2-c2cccc(OCc3ccccn3)c2)n1 [Example H1, 2-(2,6-dichloro-4-[2-hydroxyethoxy]phenyl)-4-(3-(2-pyridinylmethyloxy)phenyl)-5-(2-[3-hydroxypropylamino]pyrimidin-4-yl)-N-1H-imidazole]
54	OCCCNc1nccc(-c2[nH]c(-c3c(Cl)cc(OCCO)cc3Cl)nc2-c2cccc(OCc3ccncc3)c2)n1 [Example H3, 2-(2,6-dichloro-4-[2-hydroxyethoxy]phenyl)-4-(3-(4-pyridinylmethyloxy)phenyl)-5-(2-[3-hydroxypropylamino]pyrimidin-4-yl)-N-1H-imidazole]
23	OCCCNc1nccc(-c2[nH]c(-c3c(Cl)cncc3Cl)nc2-c2cccc(OCc3ccccc3)c2)n1 [Example H4, 2-(3,5-dichloropyridin-4-yl)-4-(3-benzyloxyphenyl)-5-(2-[3-hydroxypropyl-amino]pyrimidin-4-yl)-N-1H-imidazole]
32	OCCCNc1nccc(-c2[nH]c(-c3c(Cl)cc(OCCO)cc3Cl)nc2-c2cccc(OCc3cccnc3)c2)n1 [Example H2, 2-(2,6-dichloro-4-[2-hydroxyethoxy]phenyl)-4-(3-(3-pyridinylmethyloxy)phenyl)-5-(2-[3-hydroxypropylamino]pyrimidin-4-yl)-N-1H-imidazole]
